Measured values: US20250188506A1, “ANTICOAGULANT HEPARIN-CHONDROITIN CHIMERIC SACCHARIDE MOLECULE AS WELL AS PREPARATION METHOD AND APPLICATION THEREOF” (SHANDONG UNIVERSITY, priority 2023, published 2025)

Assays:
Xa factor = settings: commercially available comparator, stated in advantages section; cited from earlier work
PF4 = molecular target: T1, PF4 (Homo sapiens, UniProt P02776)
T1 sequence (P02776 32-101): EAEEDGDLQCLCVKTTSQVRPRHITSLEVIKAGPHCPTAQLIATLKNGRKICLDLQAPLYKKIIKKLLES

average particle size of compounds formed with PF4 (PF4): 61.57 nm
SMILES: CO[C@H]1O[C@H](COS(=O)(=O)O)[C@@H](O[C@@H]2O[C@@H](C(=O)O)[C@@H](O[C@H]3O[C@H](COS(=O)(=O)O)[C@@H](O[C@@H]4O[C@H](C(=O)O)[C@@H](O[C@H]5O[C@H](COS(=O)(=O)O)[C@@H](O)[C@H](O)[C@H]5NS(=O)(=O)O)[C@H](O)[C@H]4O)[C@H](OS(=O)(=O)O)[C@H]3NS(=O)(=O)O)[C@H](O)[C@H]2OS(=O)(=O)O)[C@H](O)[C@H]1NS(=O)(=O)O [fondaparinux, fondaparinux sodium]
neutralization of activity against the Xa factor by protamine (in words) (Xa factor): almost completely not neutralized
